IC50 and AC50 data for seven compounds are collected here from US20240368163A1, “COMPOUNDS AND METHODS FOR MODULATING SPLICING” (REMIX THERAPEUTICS INC., priority 2021, published 2024).

In general, pIC50 refers to the negative decadic logarithm of the IC50, by convention in mol/L. For orientation: AC50 means the concentration giving half of the maximal activity seen. Higher therefore signals activity only at high concentration.

Assay type in all cases: cell-based, human
The subject of test [1] is Target C. Briefly: HiBiT protein abundance assay, Target C. The following applies: Homo sapiens, K562, 24 h, Table 13A, modified K562 cells. The method, boiled down:
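Cells carrying the HiBiT knock-in were plated at 10000 cells/well, dosed with compound (10-point, 3-fold, 10 μM top final) and incubated 24 hours at 37 °C. Lytic reagent was then added and luminescence read. Percent response fed a 4PL fit for IC50.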
(With HiBiT, luminescence reflects the tagged protein that the partner subunit can reach.)

Test [2] deals with MYB. Briefly: HiBiT protein abundance assay, MYB. The following applies: Homo sapiens, K562, 24 h, Table 13A, modified K562 cells. The method, boiled down: (§1)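 Target abundance was measured as HiBiT luminescence after 24 h compound treatment of tagged K562 cells. Responses were normalized between unmodified K562 and DMSO-treated tagged cells, and IC50 taken at the 50% level of a 4PL curve.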

Test [3] relates to Target C. The test can be described thus: Splicing RT-qPCR panel, Target C canonical junction (CJ) mRNA. The note with it: Homo sapiens, RT-qPCR panel, canonical junction mRNA; compound concentration having 50% response in CJ decrease; read-out: Target C IC50 (decrease in CJ mRNA levels). The method, boiled down: (§2)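 First, A673 cells adhered 24 h, while K562 cells were plated directly. Next, compounds were added as an 11-point 3-fold series from 10 uM for 24 h. Finally, lysates went to RT-qPCR, with 2^(−ΔΔCt) values converted to percentage response.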
For orientation: Quantitative PCR measures a nucleic acid by following its amplification.

Test [4] relates to HTT. The test can be described thus: HiBiT protein abundance assay, HTT. The note with it: Homo sapiens, K562, 24 h, Table 13A, modified K562 cells. The method, boiled down: as §1
The test system of the next test is SMN2. Briefly: Splicing RT-qPCR panel, SMN2 canonical junction (CJ) mRNA. The note with it: Homo sapiens, RT-qPCR panel, canonical junction mRNA; compound concentration having 50% response in CJ decrease; read-out: SMN2 IC50 (decrease in CJ mRNA levels). In short, it runs like this: as §2
Test [5] deals with HTT. Briefly: Splicing RT-qPCR assay, HTT mRNA canonical junction (CJ) and alternative junction (AJ). The following applies: Homo sapiens; for AC50: increase in AJ mRNA. The method, boiled down: as §2
Test [6] concerns MYB. The test can be described thus: Splicing RT-qPCR assay, MYB mRNA canonical junction (CJ) and alternative junction (AJ). The following applies: Homo sapiens; for AC50: increase in AJ mRNA. The method, boiled down: as §2
Setting [7] is: 24 h, decrease in CJ mRNA, A673 or K562 cells, 24 hours treatment, RT-qPCR, read-out: HTT CJ IC50.
Where [8] appears, read: 24 h, A673 or K562 cells, 24 hours treatment, RT-qPCR.
Setting [9] is: RT-qPCR panel, canonical junction mRNA, compound concentration having 50% response in CJ decrease, read-out: HTT IC50 (decrease in CJ mRNA levels).
Setting [10] is: 24 h, decrease in CJ mRNA, A673 or K562 cells, 24 hours treatment, RT-qPCR, read-out: MYB CJ IC50.
Setting [11] is: RT-qPCR panel, canonical junction mRNA, compound concentration having 50% response in CJ decrease, read-out: MYB IC50 (decrease in CJ mRNA levels).

pIC50: −log10 of the molar value. Where only a bound is given, the exact number is not on record here.

With `CCN(c1ccc(-c2ccc(-c3cn[nH]c3)c3cn[nH]c23)nn1)[C@@H]1C[C@H]2CC[C@@H](C1)N2` [Compound 300], the pIC50 in the test with Target C [1], with MYB [2], in the test with Target C [3], in the test on HTT [4], in the test on SMN2 and in the test on HTT [5] (setting [7]) was 6.00 to 7.00 in each case. The figures for the pIC50 with HTT [5] (setting [9]), in the test with MYB [6] (setting [10]) and with MYB [6] (setting [11]) were 6.00 to 7.00, 5.00 to 6.00 and 5.00 to 6.00, respectively. Besides, the AC50 with HTT [5] (setting [8]) and in the test with MYB [6] (setting [8]) was 0.1 to 1 µM in each case.
Turning to `CN(c1ccc(-c2ccc(-c3cn[nH]c3)c3cn[nH]c23)nn1)[C@H]1[C@@H]2CNC[C@@H]21` [Compound 301], the pIC50 was < 5.00 in the test on Target C [1]; 5.00 to 6.00 with MYB [2]; < 5.00 in the test with Target C [3]; < 5.00 with HTT [4]; < 5.00 with SMN2; < 5.00 in the test with HTT [5] (setting [7]). The pIC50 with HTT [5] (setting [9]), in the test with MYB [6] (setting [10]) and in the test on MYB [6] (setting [11]) was < 5.00 throughout. Further, the AC50 in the test on HTT [5] (setting [8]) and in the test on MYB [6] (setting [8]) was > 10 µM throughout.
In the case of `CN1C[C@@H]2[C@H](C1)[C@H]2N(C)c1ccc(-c2ccc(-c3cn[nH]c3)c3cn[nH]c23)nn1` [Compound 302], the pIC50 with Target C [1] was < 5.00; in the test with MYB [2], 5.00 to 6.00; in the test with Target C [3], < 5.00; with HTT [4], < 5.00; in the test on SMN2, < 5.00; with HTT [5] (setting [7]), < 5.00. Further, the negative logarithm of the IC50 (pIC50) in the test with HTT [5] (setting [9]), in the test with MYB [6] (setting [10]) and in the test on MYB [6] (setting [11]) was < 5.00 each time. Moreover, the AC50 in the test on HTT [5] (setting [8]) and with MYB [6] (setting [8]) was > 10 µM throughout.
Take `CN(C)[C@H]1[C@@H]2CN(c3ccc(-c4ccc(-c5cn[nH]c5)c5cn[nH]c45)nn3)C[C@@H]21` [Compound 303]: the pIC50 with Target C [1] is 5.00 to 6.00; in the test on MYB [2], 5.00 to 6.00; in the test on Target C [3], < 5.00; in the test with HTT [4] it was 5.00 to 6.00; in the test on SMN2 it was 5.00 to 6.00; in the test with HTT [5] (setting [7]), < 5.00. Moreover, the pIC50 in the test with HTT [5] (setting [9]), in the test on MYB [6] (setting [10]) and in the test with MYB [6] (setting [11]) was < 5.00 each time. Moreover, the AC50 with HTT [5] (setting [8]) and with MYB [6] (setting [8]) was > 10 µM throughout.
Turning to `c1n[nH]cc1-c1ccc(-c2ccc(N3CC[C@@]45CCN[C@@H]4CC[C@@H]35)nn2)c2[nH]ncc12` [Compound 304], the pIC50 is < 5.00 in the test with Target C [1]; 5.00 to 6.00 in the test on MYB [2]; < 5.00 with Target C [3]; 5.00 to 6.00 with HTT [4]; 5.00 to 6.00 with SMN2; < 5.00 in the test on HTT [5] (setting [7]). For the same compound, the negative-log IC50 (pIC50) in the test on HTT [5] (setting [9]), in the test with MYB [6] (setting [10]) and in the test on MYB [6] (setting [11]) was < 5.00 each time. Besides, the AC50 in the test on HTT [5] (setting [8]) and with MYB [6] (setting [8]) was > 10 µM in each case.
`CC(C)(C)NC1CCN(c2ccc(-c3ccc(-c4cn[nH]c4)c4cn[nH]c34)nn2)C1` (centres unmarked) [Compound 305]: the pIC50 with Target C [1] was 5.00 to 6.00; with MYB [2], 6.00 to 7.00; in the test with Target C [3] it was 5.00 to 6.00; in the test on HTT [4] it was 6.00 to 7.00; in the test on SMN2, > 7.00; in the test on HTT [5] (setting [7]), 6.00 to 7.00. Moreover, the pIC50 was 6.00 to 7.00 with HTT [5] (setting [9]), 5.00 to 6.00 with MYB [6] (setting [10]) and 5.00 to 6.00 in the test on MYB [6] (setting [11]). Moreover, the AC50 is 0.1 to 1 µM in the test with HTT [5] (setting [8]) and 1 to 10 µM in the test with MYB [6] (setting [8]).
With `c1n[nH]cc1-c1ccc(-c2ccc(N3CCC(NC4CC4)C3)nn2)c2[nH]ncc12` (centres unmarked) [Compound 306], the pIC50 in the test with Target C [1] was < 5.00; with MYB [2], 5.00 to 6.00; in the test on Target C [3] it was < 5.00; in the test on HTT [4], 5.00 to 6.00; with SMN2, 6.00 to 7.00; in the test on HTT [5] (setting [7]), < 5.00. The pIC50 in the test on HTT [5] (setting [9]), with MYB [6] (setting [10]) and in the test with MYB [6] (setting [11]) was < 5.00 each time. In addition, the results for the AC50 with HTT [5] (setting [8]) and with MYB [6] (setting [8]) were 1 to 10 µM and > 10 µM, respectively.
